Laboratory results: PubChem BioAssay (NCI)
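Cells were grown in 96-well plates and exposed to each compound for 48 hours at five concentrations; endpoints were interpolated linearly between bracketing concentrations, or set to the highest concentration if not reached. GI50 marks 50% less growth. At the TGI there is no net growth.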

Experiments:
Assay in all cases: DTP human tumour cell line panel, 48 h; in the data active means GI50 below about 0.43 µM; inactive means the rest
EKVX NSCLC = system: EKVX NSCLC
CCRF-CEM leukemia = system: CCRF-CEM leukemia
U251 CNS = system: U251 CNS
HCT-116 colon = system: HCT-116 colon
SW-620 colon = system: SW-620 colon
IGROV1 ovarian = system: IGROV1 ovarian
MOLT-4 leukemia = system: MOLT-4 leukemia
RXF 393 renal = system: RXF 393 renal
PC-3 prostate = system: PC-3 prostate
MCF7 breast = system: MCF7 breast

N#CC(C#N)=Cc1ccc(C(O)P(=O)(O)O)cc1 (stereo not drawn)
> 100 µM: TGI (EKVX NSCLC) | TGI (CCRF-CEM leukemia) | TGI (U251 CNS) | TGI (HCT-116 colon) | TGI (SW-620 colon) | TGI (IGROV1 ovarian) | TGI (MOLT-4 leukemia)

CCSc1nc(NC(C)c2ccccc2)c2cnn(CO)c2n1 (stereo not drawn)
inactive: GI50 (CCRF-CEM leukemia) > 100 µM | GI50 (RXF 393 renal) 91.5 µM | GI50 (U251 CNS) 74.8 µM | GI50 (HCT-116 colon) > 100 µM | GI50 (SW-620 colon) 67.9 µM | GI50 (IGROV1 ovarian) > 100 µM | GI50 (PC-3 prostate) 38.5 µM | GI50 (MOLT-4 leukemia) > 100 µM | GI50 (MCF7 breast) 52.8 µM
> 100 µM: TGI (CCRF-CEM leukemia) | TGI (RXF 393 renal) | TGI (U251 CNS) | TGI (HCT-116 colon) | TGI (SW-620 colon) | TGI (IGROV1 ovarian) | TGI (PC-3 prostate) | TGI (MOLT-4 leukemia) | TGI (MCF7 breast)

COc1ccc(CN2C(=O)/C(=C\C(=O)c3ccc(OCCN4CCCC4)cc3)c3ccccc32)cc1
4.83 µM: TGI (PC-3 prostate)
3.78 µM: TGI (IGROV1 ovarian)
7.11 µM: TGI (MOLT-4 leukemia)
3.66 µM: TGI (RXF 393 renal)
inactive: GI50 (EKVX NSCLC) 11.3 µM | GI50 (CCRF-CEM leukemia) 3.34 µM | GI50 (RXF 393 renal) 1.95 µM | GI50 (IGROV1 ovarian) 1.99 µM | GI50 (PC-3 prostate) 2.35 µM | GI50 (MOLT-4 leukemia) 2.91 µM
34.2 µM: TGI (EKVX NSCLC)
32.2 µM: TGI (CCRF-CEM leukemia)

CN1CCN(Cc2ccc(NC(=O)c3cncc(C#Cc4c(N)ncc5c(F)cccc45)c3)cc2C(F)(F)F)CC1
1.5 µM: TGI (MOLT-4 leukemia)
1.42 µM: TGI (U251 CNS)
1.2 µM: TGI (HCT-116 colon)
1.31 µM: TGI (MCF7 breast)
1.54 µM: TGI (RXF 393 renal)
1.61 µM: TGI (IGROV1 ovarian)
inactive: GI50 (EKVX NSCLC) 0.732 µM | GI50 (RXF 393 renal) 0.799 µM | GI50 (U251 CNS) 0.725 µM | GI50 (HCT-116 colon) 0.517 µM | GI50 (SW-620 colon) 0.454 µM | GI50 (IGROV1 ovarian) 0.726 µM | GI50 (PC-3 prostate) 0.787 µM | GI50 (MOLT-4 leukemia) 0.57 µM | GI50 (MCF7 breast) 0.55 µM
1.46 µM: TGI (EKVX NSCLC)
1.6 µM: TGI (PC-3 prostate)
1.16 µM: TGI (SW-620 colon)

N#CCCN(C1=NN(C(=O)CC(=O)Nc2ccc(Cl)cc2)C(c2ccccc2)C1)c1ccc(Cl)cc1 (stereo not drawn)
> 100 µM: TGI (EKVX NSCLC) | TGI (CCRF-CEM leukemia) | TGI (RXF 393 renal) | TGI (U251 CNS) | TGI (HCT-116 colon) | TGI (SW-620 colon) | TGI (IGROV1 ovarian) | TGI (MOLT-4 leukemia)

O=c1c2ccccc2nc2n1CCc1c-2[nH]c2cc3c(cc12)OCO3
> 25 µM: TGI (EKVX NSCLC) | TGI (CCRF-CEM leukemia) | TGI (U251 CNS) | TGI (HCT-116 colon) | TGI (SW-620 colon) | TGI (IGROV1 ovarian) | TGI (PC-3 prostate) | TGI (MOLT-4 leukemia) | TGI (MCF7 breast)
inactive: GI50 (CCRF-CEM leukemia) > 25 µM

Cn1cnc([N+](=O)[O-])c1Sc1nc2ccccc2o1
15.3 µM: TGI (EKVX NSCLC)
12.8 µM: TGI (CCRF-CEM leukemia)
11.6 µM: TGI (HCT-116 colon)
27.7 µM: TGI (IGROV1 ovarian)
22.1 µM: TGI (RXF 393 renal)
8.99 µM: TGI (MOLT-4 leukemia)
26.2 µM: TGI (U251 CNS)
14.3 µM: TGI (SW-620 colon)

COC(=O)C(=NNc1ccccc1[N+](=O)[O-])C(=O)OC
> 100 µM: TGI (EKVX NSCLC) | TGI (CCRF-CEM leukemia) | TGI (RXF 393 renal) | TGI (U251 CNS) | TGI (HCT-116 colon) | TGI (SW-620 colon) | TGI (IGROV1 ovarian) | TGI (MOLT-4 leukemia)

Cn1nc(-c2ccccc2)c2c(/C=C/c3ccc(Cl)cc3)onc2c1=O
28.4 µM: TGI (HCT-116 colon)
> 100 µM: TGI (EKVX NSCLC) | TGI (CCRF-CEM leukemia) | TGI (RXF 393 renal) | TGI (U251 CNS) | TGI (SW-620 colon) | TGI (IGROV1 ovarian) | TGI (MOLT-4 leukemia)

Cc1cc(I)cc(CNCCN2CCOCC2)c1O
> 100 µM: TGI (EKVX NSCLC) | TGI (RXF 393 renal) | TGI (U251 CNS) | TGI (HCT-116 colon) | TGI (SW-620 colon) | TGI (IGROV1 ovarian) | TGI (PC-3 prostate) | TGI (MOLT-4 leukemia) | TGI (MCF7 breast)
inactive: GI50 (EKVX NSCLC) 24.3 µM | GI50 (RXF 393 renal) 48.5 µM | GI50 (U251 CNS) > 100 µM | GI50 (HCT-116 colon) 37.2 µM | GI50 (SW-620 colon) > 100 µM | GI50 (IGROV1 ovarian) 67 µM | GI50 (PC-3 prostate) > 100 µM | GI50 (MOLT-4 leukemia) > 100 µM | GI50 (MCF7 breast) > 100 µM

CC12CC/C(=N/NC(N)=O)C3C1CCCC32
> 100 µM: TGI (CCRF-CEM leukemia) | TGI (U251 CNS) | TGI (HCT-116 colon) | TGI (SW-620 colon) | TGI (IGROV1 ovarian) | TGI (MOLT-4 leukemia)

CN(C)CCCOc1ccc(/C=C2/CCC/C(=C/c3ccc(OCCCN(C)C)cc3)C2=O)cc1
2.5 µM: TGI (MOLT-4 leukemia)
6.84 µM: TGI (EKVX NSCLC)
2.76 µM: TGI (HCT-116 colon)
2.98 µM: TGI (RXF 393 renal)
3.73 µM: TGI (SW-620 colon)
6.78 µM: TGI (IGROV1 ovarian)
2.13 µM: TGI (U251 CNS)
3.84 µM: TGI (CCRF-CEM leukemia)

COc1ccc(NC(=S)C#N)cc1
> 100 µM: TGI (CCRF-CEM leukemia) | TGI (RXF 393 renal) | TGI (U251 CNS) | TGI (HCT-116 colon) | TGI (SW-620 colon) | TGI (PC-3 prostate) | TGI (MCF7 breast)

N.N.N.N.N.N#Cc1nn[n-]n1.[Cl-].[Co+3]
> 100 µM: TGI (EKVX NSCLC) | TGI (CCRF-CEM leukemia) | TGI (RXF 393 renal) | TGI (U251 CNS) | TGI (HCT-116 colon) | TGI (SW-620 colon) | TGI (IGROV1 ovarian) | TGI (MOLT-4 leukemia)
inactive: GI50 (EKVX NSCLC) > 100 µM | GI50 (CCRF-CEM leukemia) > 100 µM | GI50 (RXF 393 renal) > 100 µM | GI50 (U251 CNS) > 100 µM | GI50 (HCT-116 colon) > 100 µM | GI50 (SW-620 colon) > 100 µM | GI50 (IGROV1 ovarian) > 100 µM | GI50 (MOLT-4 leukemia) > 100 µM

COC(=O)C(=O)C(C#N)c1cccc(Cl)c1 (stereo not drawn)
> 100 µM: TGI (EKVX NSCLC) | TGI (CCRF-CEM leukemia) | TGI (RXF 393 renal) | TGI (U251 CNS) | TGI (HCT-116 colon) | TGI (SW-620 colon) | TGI (IGROV1 ovarian) | TGI (MOLT-4 leukemia)

Cc1cc2nc3c(=O)[nH]c(=O)nc-3n(CC(O)C(O)C(O)CO)c2cc1N (stereo not drawn)
> 100 µM: TGI (EKVX NSCLC) | TGI (CCRF-CEM leukemia) | TGI (HCT-116 colon) | TGI (SW-620 colon) | TGI (IGROV1 ovarian) | TGI (MOLT-4 leukemia)

CC12CCCC(C#N)(C1)OC2=O (stereo not drawn)
> 100 µM: TGI (EKVX NSCLC) | TGI (CCRF-CEM leukemia) | TGI (RXF 393 renal) | TGI (U251 CNS) | TGI (HCT-116 colon) | TGI (SW-620 colon) | TGI (IGROV1 ovarian) | TGI (MOLT-4 leukemia)

CS(=O)(=O)c1ccc2c(c1)C(=O)c1c-2n(CCCBr)c(=O)c2cc([N+](=O)[O-])ccc12
inactive: GI50 (EKVX NSCLC) > 100 µM | GI50 (CCRF-CEM leukemia) 0.758 µM | GI50 (U251 CNS) 8.76 µM | GI50 (HCT-116 colon) 7.44 µM | GI50 (SW-620 colon) 0.683 µM | GI50 (IGROV1 ovarian) 13.6 µM | GI50 (PC-3 prostate) 9.94 µM | GI50 (MOLT-4 leukemia) 1.94 µM | GI50 (MCF7 breast) 0.992 µM
30.7 µM: TGI (CCRF-CEM leukemia)
> 100 µM: TGI (EKVX NSCLC) | TGI (U251 CNS) | TGI (HCT-116 colon) | TGI (SW-620 colon) | TGI (IGROV1 ovarian) | TGI (PC-3 prostate) | TGI (MOLT-4 leukemia) | TGI (MCF7 breast)

O=C(O)CCC(=O)Oc1ccc(O)c2c1CCCC2=O
> 100 µM: TGI (EKVX NSCLC) | TGI (CCRF-CEM leukemia) | TGI (RXF 393 renal) | TGI (U251 CNS) | TGI (HCT-116 colon) | TGI (SW-620 colon) | TGI (IGROV1 ovarian) | TGI (MOLT-4 leukemia)

CC(=O)n1nnc2ccc([N+](=O)[O-])cc21
> 100 µM: TGI (EKVX NSCLC) | TGI (CCRF-CEM leukemia) | TGI (RXF 393 renal) | TGI (U251 CNS) | TGI (HCT-116 colon) | TGI (SW-620 colon) | TGI (IGROV1 ovarian) | TGI (MOLT-4 leukemia)
